Assay results: ChEMBL document CHEMBL5360530, “Structure activity relationship (SAR) and anticancer activity of pyrrolidine derivatives: Recent developments and future prospects (A review)” (Eur J Med Chem, 2023)

Key:
[1] = Cytotoxicity against human Chang liver cells assessed as cell growth inhibition measured after 24 hrs by DAPI and propidium iodide staining based assay; format: toxicity
M-HeLa = experiment: Anticancer activity against human HelaM cells assessed as cell growth inhibition measured after 24 hrs by DAPI and propidium iodide staining based assay; format: functional
FaDu = experiment: Anticancer activity against human FaDu cells assessed as cell growth inhibition; format: functional, cell-based

For `CN(C)CCc1cc2c(cc1O)OCO2`, the IC50 at 24 h [1] was over 100 µM and the IC50 (M-HeLa) was 14.7 µM.
With `Cc1cc(O)c(-c2ccc(F)cc2)c(=O)o1` the IC50 at 24 h [1] was over 100 µM and the IC50 (M-HeLa) was at least 14.7 µM.
Work on `CN(C)CCc1c(O)c2ccccc2oc1=O` yielded an IC50 at 24 h [1] of over 100 µM and an IC50 (M-HeLa) of at least 14.7 µM.
With `O=[N+]([O-])c1c(Cl)cc2c(no[n+]2[O-])c1Nc1ccc(C2CCCCC2)c(O)c1` the IC50 at 24 h [1] was over 100 µM and the IC50 (M-HeLa) was at least 14.7 µM.
`O=C1Nc2ccccc2[C@@]12N[C@H](Cc1c[nH]c3ccccc13)[C@@H]([N+](=O)[O-])[C@@H]2c1ccc(Cl)cc1` showed an IC50 (FaDu) of at least 30 µM.
With `O=C1Nc2ccccc2[C@@]12N[C@H](Cc1c[nH]cn1)[C@@H]([N+](=O)[O-])[C@@H]2c1ccc(Cl)cc1` the IC50 (FaDu) was at least 30 µM.
`COc1ccc([C@H]2[C@H]([N+](=O)[O-])[C@@H](Cc3c[nH]c4ccccc34)N[C@]23C(=O)Nc2ccc(OC(F)(F)F)cc23)cc1` gave an IC50 (FaDu) of at least 30 µM.
Work on `COc1ccc([C@H]2[C@H]([N+](=O)[O-])[C@@H](Cc3c[nH]c4ccccc34)N[C@]23C(=O)Nc2ccccc23)cc1` yielded an IC50 (FaDu) of at least 30 µM.
`O=C1Nc2ccccc2[C@@]12N[C@H](Cc1c[nH]c3ccccc13)[C@@H]([N+](=O)[O-])[C@@H]2c1ccccc1Cl` showed an IC50 (FaDu) of at least 30 µM.
Compound `Cc1cc(O)c(C2CCCCC2)c(=O)o1` has an IC50 at 24 h [1] of over 100 µM and an IC50 (M-HeLa) of at least 14.7 µM.
`Oc1cc2c(cc1-c1ccc(F)cc1)OCO2` gave an IC50 at 24 h [1] of over 100 µM and an IC50 (M-HeLa) of 14.7 µM.
Work on `O=C1Nc2ccc(OC(F)(F)F)cc2[C@@]12N[C@H](Cc1c[nH]cn1)[C@@H]([N+](=O)[O-])[C@@H]2c1ccc(Cl)cc1` yielded an IC50 (FaDu) of at least 30 µM.
Compound `CCCCCCc1cc2c(cc1O)OCO2` has an IC50 at 24 h [1] of over 100 µM and an IC50 (M-HeLa) of 14.7 µM.
`Cc1cc(O)c(CCN(C)C)c(=O)o1` gave an IC50 at 24 h [1] of over 100 µM and an IC50 (M-HeLa) of at least 14.7 µM.
In the case of `O=C1Nc2ccccc2[C@@]12N[C@H](Cc1c[nH]c3ccccc13)[C@@H]([N+](=O)[O-])[C@@H]2c1ccccc1`, the IC50 (FaDu) is reported as 30 µM.
With `O=[N+]([O-])c1c(Cl)cc2c(no[n+]2[O-])c1Nc1ccc(-c2ccccc2)c(O)c1` the IC50 at 24 h [1] was over 100 µM and the IC50 (M-HeLa) was at least 14.7 µM.
For `COc1ccc(-c2c(O)c3ccccc3oc2=O)cc1`, the IC50 at 24 h [1] was over 100 µM and the IC50 (M-HeLa) was at least 14.7 µM.
With `O=[N+]([O-])c1c(Cl)cc2c(no[n+]2[O-])c1Nc1ccc(-c2ccc(Br)cc2)c(O)c1` the IC50 at 24 h [1] was over 100 µM and the IC50 (M-HeLa) was at least 14.7 µM.
`O=C1Nc2ccc(OC(F)(F)F)cc2[C@@]12N[C@H](Cc1c[nH]cn1)[C@@H]([N+](=O)[O-])[C@@H]2c1ccccc1` gave an IC50 (FaDu) of at least 30 µM.
`O=[N+]([O-])c1c(Cl)cc2c(no[n+]2[O-])c1Nc1cccc(O)c1` gave an IC50 at 24 h [1] of over 100 µM and an IC50 (M-HeLa) of at least 14.7 µM.
Compound `COc1ccc(-c2cc3c(cc2O)OCO3)cc1` has an IC50 at 24 h [1] of over 100 µM and an IC50 (M-HeLa) of 14.7 µM.
Compound `Cc1cc(O)c(-c2ccc(Br)cc2)c(=O)o1` has an IC50 at 24 h [1] of over 100 µM and an IC50 (M-HeLa) of at least 14.7 µM.
For `CCCCCCc1c(O)cc(C)oc1=O`, the IC50 at 24 h [1] was over 100 µM and the IC50 (M-HeLa) was at least 14.7 µM.
Work on `O=C1Nc2ccc(OC(F)(F)F)cc2[C@@]12N[C@H](Cc1c[nH]cn1)[C@@H]([N+](=O)[O-])[C@@H]2c1ccc(Br)cc1` yielded an IC50 (FaDu) of at least 30 µM.
With `Cc1ccc([C@H]2[C@H]([N+](=O)[O-])[C@@H](Cc3c[nH]c4ccccc34)N[C@]23C(=O)Nc2ccccc23)cc1` the IC50 (FaDu) was at least 30 µM.
For `Cc1ccc([C@H]2[C@H]([N+](=O)[O-])[C@@H](Cc3c[nH]cn3)N[C@]23C(=O)Nc2ccc(OC(F)(F)F)cc23)cc1`, the IC50 (FaDu) was at least 30 µM.
`Cc1cc(O)cc(=O)o1` showed an IC50 at 24 h [1] of over 100 µM and an IC50 (M-HeLa) of at least 14.7 µM.
Compound `Oc1cc2c(cc1-c1ccc(Br)cc1)OCO2` has an IC50 at 24 h [1] of over 100 µM and an IC50 (M-HeLa) of 14.7 µM.
Compound `O=c1oc2ccccc2c(O)c1-c1ccc(F)cc1` has an IC50 at 24 h [1] of over 100 µM and an IC50 (M-HeLa) of at least 14.7 µM.
